Our source for the IC50 values is ChEMBL document CHEMBL1142255, “Potent pyrrolidine- and piperidine-based BACE-1 inhibitors” (Bioorg Med Chem Lett, 2008).

Each structure is given as a SMILES string.

Assay [1] concerns the target T1, Beta-secretase 1 (Homo sapiens, UniProt P56817).
The target in assay [2] is T1, Beta-secretase 1. The source holds these as a separate data set.

T1 sequence (P56817 whole entry): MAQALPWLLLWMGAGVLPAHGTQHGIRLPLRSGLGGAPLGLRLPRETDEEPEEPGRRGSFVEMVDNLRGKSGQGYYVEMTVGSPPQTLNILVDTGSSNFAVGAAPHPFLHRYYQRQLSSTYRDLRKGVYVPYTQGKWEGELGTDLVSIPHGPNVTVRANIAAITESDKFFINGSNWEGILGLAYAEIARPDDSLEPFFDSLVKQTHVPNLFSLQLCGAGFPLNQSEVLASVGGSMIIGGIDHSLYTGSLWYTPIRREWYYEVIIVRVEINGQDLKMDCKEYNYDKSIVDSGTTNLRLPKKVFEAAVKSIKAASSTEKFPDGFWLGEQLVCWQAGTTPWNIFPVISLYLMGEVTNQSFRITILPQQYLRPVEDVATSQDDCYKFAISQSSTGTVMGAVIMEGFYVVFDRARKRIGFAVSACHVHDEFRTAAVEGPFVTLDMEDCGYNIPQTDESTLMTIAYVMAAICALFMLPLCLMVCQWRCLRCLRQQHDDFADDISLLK

In the case of `CCCN(CCC)C(=O)c1cc(C)cc(C(=O)N[C@@H](Cc2cc(F)cc(F)c2)[C@H](O)[C@H]2C[C@@H](OCCN(C)C)CCN2)c1`, the half-inhibitory concentration (IC50) was determined as 0.482 µM in assay [1] and 0.026 µM in assay [2].

For `CCCN(CCC)C(=O)c1cc(C)cc(C(=O)N[C@@H](Cc2cc(F)cc(F)c2)[C@H](O)[C@H]2C[C@@H](CC3CCCCC3)CCN2)c1`, the figures for the IC50 in assay [1] and in assay [2] were 2 µM and 0.63 µM, respectively.

With `CCCN(CCC)C(=O)c1cc(C)cc(C(=O)N[C@@H](Cc2cc(F)cc(F)c2)[C@H](O)[C@H]2C[C@@H](CCc3ccccc3)CCN2)c1`, the IC50 turned out to be 1.85 µM in assay [1] and 0.191 µM in assay [2].

`CCCN(CCC)C(=O)c1cc(C)cc(C(=O)N[C@@H](Cc2cc(F)cc(F)c2)[C@H](O)[C@H]2C[C@@H](C3CCCCC3)CCN2)c1`: the IC50 was 4.2 µM in assay [1] and 0.61 µM in assay [2].

With `CCCN(CCC)C(=O)c1cc(C)cc(C(=O)N[C@@H](Cc2cc(F)cc(F)c2)[C@H](O)[C@H]2C[C@@H](Cc3ccc(OC)cc3)CCN2)c1`, the IC50 worked out at 2 µM in assay [1] and 0.44 µM in assay [2].

For `CCCN(CCC)C(=O)c1cc(C)cc(C(=O)N[C@@H](Cc2cc(F)cc(F)c2)[C@H](O)[C@H]2C[C@@H](Cc3cccc(OC)c3)CCN2)c1`, in assay [2], the IC50 is 0.33 µM. This lies in the sub-micromolar range.

Consider `CCCN(CCC)C(=O)c1cc(C)cc(C(=O)N[C@@H](Cc2cc(F)cc(F)c2)[C@H](O)[C@H]2C[C@@H](OCC3CCCCC3)CCN2)c1`, for which the values for the IC50 in assay [1] and in assay [2] were 0.567 µM and 0.012 µM, respectively.

On to `CCCN(CCC)C(=O)c1cc(C)cc(C(=O)N[C@@H](Cc2cc(F)cc(F)c2)[C@H](O)[C@H]2C[C@@H](OC)CN2)c1`, for which the IC50 worked out at 0.78 µM in assay [1] and 0.187 µM in assay [2].

On to `CCCN(CCC)C(=O)c1cc(C)cc(C(=O)N[C@@H](Cc2cc(F)cc(F)c2)[C@H](O)[C@H]2C[C@@H](OCC3CC3)CCN2)c1`, for which the values for the IC50 in assay [1] and in assay [2] were 0.121 µM and 0.006 µM, respectively.

With `CCCN(CCC)C(=O)c1cc(C)cc(C(=O)N[C@@H](Cc2cc(F)cc(F)c2)[C@H](O)[C@H]2CCCN2)c1`, the IC50 stood at 0.33 µM in assay [1] and 0.065 µM in assay [2].

With `CCCN(CCC)C(=O)c1cc(C)cc(C(=O)N[C@@H](Cc2cc(F)cc(F)c2)[C@H](O)[C@H]2CCN2)c1`, the IC50 was found to be 2.8 µM in assay [1] and 0.77 µM in assay [2].

As to `CCCN(CCC)C(=O)c1cc(C)cc(C(=O)N[C@@H](Cc2cc(F)cc(F)c2)[C@H](O)[C@H]2C[C@@H](OCCOC)CCN2)c1`, the IC50 in assay [1] was 0.11 µM; in assay [2], 0.004 µM.

On to `CCCN(CCC)C(=O)c1cc(C)cc(C(=O)N[C@@H](Cc2cc(F)cc(F)c2)[C@H](O)[C@H]2C[C@@H](Cc3ccccc3OC)CCN2)c1`, for which the IC50 in assay [2] turned out to be 1.35 µM.

Turning to `CCCN(CCC)C(=O)c1cc(C)cc(C(=O)N[C@@H](Cc2cc(F)cc(F)c2)[C@H](O)[C@H]2C[C@@H](OC(C)C)CCN2)c1`, the IC50 in assay [1] was 0.858 µM; in assay [2], 0.12 µM.

For `CCCCO[C@H]1CCN[C@@H]([C@@H](O)[C@H](Cc2cc(F)cc(F)c2)NC(=O)c2cc(C)cc(C(=O)N(CCC)CCC)c2)C1`, the IC50 amounted to 0.16 µM in assay [1] and 0.007 µM in assay [2].

Consider `CCC[C@H]1CCN[C@@H]([C@@H](O)[C@H](Cc2cc(F)cc(F)c2)NC(=O)c2cc(C)cc(C(=O)N(CCC)CCC)c2)C1`, for which the IC50 in assay [1] was 1.2 µM; in assay [2] it was 0.07 µM.

As for `CCCN(CCC)C(=O)c1cc(C)cc(C(=O)N[C@@H](Cc2cc(F)cc(F)c2)[C@H](O)[C@H]2C[C@@H](OC(C)=O)CCN2)c1`, the IC50 in assay [1] is 3 µM; in assay [2] it was 2 µM.

Turning to `CCCN(CCC)C(=O)c1cc(C)cc(C(=O)N[C@@H](Cc2cc(F)cc(F)c2)[C@H](O)[C@H]2C[C@@H](O)CN2)c1`, the IC50 in assay [1] is 1.45 µM; in assay [2], 0.089 µM.
